Laboratory results: US20260183302A1, “PDK1 REGULATORY COMPOUND AND COMPOSITION CONTAINING THE SAME” (PROVIBIO CO., LTD., priority 2024, published 2026)

System: T cells isolated from mouse spleens
Experiment: T cell proliferation inhibition (CFSE flow cytometry, anti-CD3/anti-CD28 stimulation)
Assay type: cell-based, C57BL/6 mice
Details: three days
Description: To verify the T cell proliferation inhibitory effect of the compounds according to the present invention, the following experiment was performed based on flow cytometry analysis using carboxyfluorescein diacetate succinimidyl ester (CFSE), a fluorescent dye that binds to intracellular molecules via covalent bonds.
Spleens were extracted from 7-week-old C57BL/6 mice, ground, and then separated into single cells using a strainer (40 μm pore size, SPL). Red blood cells were removed using ACK (Ammonium-Chloride-Potassium) lysis buffer to isolate white blood cells.
Finally, using a MACS Magnetic Stand and LS column, T cells were isolated from the spleen.
The T cells isolated from the spleen were resuspended in 1 mL of free medium (RPMI-1640+200 U/mL penicillin+200 μg/mL streptomycin), and 0.3 μL of CFSE (10 mM) was added. The mixture was incubated at 37° C. for 5 minutes.
Free medium (10 mL) was added to stop the reaction, and the cells were centrifuged to obtain the cell pellet.
RPMI 1640 medium containing 10% FBS, 100 U/mL penicillin, 100 μg/mL streptomycin, and resuspended the cells. The cells were then seeded into a 96-well plate at a density of 2× 10^5 cells per well and activated with CD3 and CD28 antibodies (0.5 μg/mL each) to activate T cells.
The compound diluted in DMSO was added at concentrations of 10 nM, 100 nM, 1 μM, 10 μM, 30 μM, and 50 μM, with three wells per concentration, and cultured at 37° C. and 5% CO2 for three days. The cells were then analyzed using a FACS Canto instrument.
The proliferation inhibition rate (%) was calculated using the following formula: […]

Row | SMILES | Proliferation inhibition rate (%) (concentration 10 nM) | Proliferation inhibition rate (%) (concentration 100 nM) | Proliferation inhibition rate (%) (concentration 1 μM) | Proliferation inhibition rate (%) (concentration 10 μM) | Proliferation inhibition rate (%) (concentration 30 μM) | Proliferation inhibition rate (%) (concentration 50 μM) | also measured
1 | Cc1ccc(C(=O)NCCCCCCCCCCCCN2CCN(C)CC2)nc1 [Compound 202, 5-Methyl-N-(12-(4-methylpiperazin-1-yl)dodecyl) picolinamide] | 4.05 | 13.17 | 18.96 | 100.00 | 100.00 | 100.00 | 
2 | CC(C)(C)OC(=O)N1CCN(CCCCCCCCCCCCNC(=O)c2cccnc2N)CC1 [Compound 111, tert-butyl-4-(12-(2-aminonicotinamido)dodecyl) piperazine-1-carboxylate] | 0.00 | 100.00 | 100.00 | 100.00 | 100.00 | 100.00 | 
3 | Nc1ncccc1C(=O)NCCCCCCCCCCCCN1CCC(O)CC1 [Compound 48, 2-Amino-N-(12-(4-hydroxypiperidin-1-yl)dodecyl) nicotinamide] |  | 100.00 | 100.00 | 100.00 | 100.00 | 100.00 | 
4 | CN1CCN(CCCCCCCCCCCCNC(=O)c2c(Cl)cncc2Cl)CC1 [Compound 201, 3,5-Dichloro-N-(12-(4-methylpiperazin-1-yl)dodecyl) isonicotinamide] | 7.24 | 6.66 | 8.54 | 78.44 | 100.00 | 100.00 | 
5 | CN1CCN(CCCCCCCCCCCCNC(=O)c2ccc(F)cn2)CC1 [Compound 203, 5-Fluoro-N-(12-(4-methylpiperazin-1-yl)dodecyl) picolinamide] | −4.49 | 1.16 | 6.80 | 100.00 | 100.00 | 100.00 | 
6 | CN1CCN(CCCCCCCCCCCCNC(=O)c2ccccc2C(=O)NC2CCCCC2)CC1 [Compound 191, N1-Cyclohexyl-N2-(12-(4-methylpiperazin-1-yl)dodecyl) phthalamide] | 0.00 | 0.00 | 7.39 | 93.26 | 100.00 | 100.00 | 
7 | COc1ccc(C(=O)NCCCCCCCCCCCCN2CCN(C)CC2)nc1 [Compound 204, 5-methoxy-N-(12-(4-methylpiperazin-1-yl)dodecyl) picolinamide] | −2.60 | −0.14 | 12.30 | 95.01 | 100.00 | 100.00 | 
8 | COC1CCN(CCCCCCCCCCCCNC(=O)c2cccnc2N)CC1 [Compound 94, 2-amino-N-(12-(4-methoxypiperidin-1-yl)dodecyl) nicotinamide] |  | 100.00 | 100.00 | 100.00 | 100.00 | 100.00 | 
9 | COC(=O)C1CCN(CCCCCCCCCCCCNC(=O)c2cccnc2N)C1 (centres unmarked) [Compound 116, Methyl-1-(12-(2-aminonicotinamido)dodecyl)pyrrolidine-3-carboxylate] |  |  |  |  |  |  | inhibition at 0.01 µM (Mus musculus, T-cell, 72 h, concentration 10 nM, read-out: Proliferation inhibition rate (%)): -1.9%; inhibition at 0.1 µM (Mus musculus, T-cell, 72 h, concentration 100 nM, read-out: Proliferation inhibition rate (%)): 26.2%; inhibition at 1 µM (Mus musculus, T-cell, 72 h, concentration 1 μM, read-out: Proliferation inhibition rate (%)): 100%; inhibition at 10 µM (Mus musculus, T-cell, 72 h, concentration 10 μM, read-out: Proliferation inhibition rate (%)): 100%; inhibition at 30 µM (Mus musculus, T-cell, 72 h, concentration 30 μM, read-out: Proliferation inhibition rate (%)): 100%; inhibition at 50 µM (Mus musculus, T-cell, 72 h, concentration 50 μM, read-out: Proliferation inhibition rate (%)): 100%
10 | Nc1ncccc1C(=O)NCCCCCCCCCCCCN1CCC2CCCCC2C1 (centres unmarked) [Compound 16, 2-Amino-N-(12-(octahydroisoquinolin-2 (1H)-yl)dodecyl) nicotinamide] |  |  | 100.00 | 100.00 | 100.00 | 100.00 | 
11 | Nc1ncccc1C(=O)NCCCCCCCCCCCCN1CCc2ccccc2C1 [Compound 17, 2-Amino-N-(12-(3,4-dihydroisoquinolin-2 (1H)-yl)dodecyl) nicotinamide] |  |  |  |  |  |  | Proliferation inhibition rate (%) (concentration 10 nM, listed as PBK-2024-004, 0.01 µM): 0.00%; Proliferation inhibition rate (%) (concentration 100 nM, listed as PBK-2024-004, 0.1 µM): −14.00%; Proliferation inhibition rate (%) (concentration 1 μM, listed as PBK-2024-004, 1 µM): 100.00%; Proliferation inhibition rate (%) (concentration 10 μM, listed as PBK-2024-004, 10 µM): 100.00%
12 | CN1CCN(CCCCCCCCCCCCNC(=O)c2ccncc2N)CC1 [Compound 209, 3-Amino-N-(12-(4-methylpiperazin-1-yl)dodecyl) isonicotinamide] | −1.45 | 1.59 | 18.81 | 84.52 | 100.00 | 100.00 | 
13 | CN(CCCCCCCCCCCCNC(=O)c1cccnc1N)C1CCCCC1 [Compound 34, 2-Amino-N-(12-(cyclohexyl(methyl)amino)dodecyl) nicotinamide] |  | 100.00 | 100.00 | 100.00 | 100.00 | 100.00 | 
14 | CC(C)(C)OC(=O)NC1CCN(CCCCCCCCCCCCNC(=O)c2cccnc2N)CC1 [Compound 101, tert-Butyl (1-(12-(2-aminonicotinamido)dodecyl)piperidin-4-yl) carbamate] | −0.15 | 100.00 | 100.00 | 100.00 | 100.00 | 100.00 | 
15 | Nc1ncccc1C(=O)NCCCCCCCCCCCCNC1CCOC1 (centres unmarked) [Compound 128, 2-amino-N-(12-((tetrahydrofuran-3-yl)amino)dodecyl) nicotinamide] |  | 100.00 | 100.00 | 100.00 | 100.00 | 100.00 | 
16 | Nc1ncccc1C(=O)NCCCN1CCOCC1 [Compound 78, 2-amino-N-(3-morpholin-4-yl-propyl) nicotinamide] | −7.14 | −4.19 | −3.73 | 0.68 | 4.51 | 8.76 | 
17 | CC1CN(CCCCCCCCCCCCNC(=O)c2cccnc2N)C(C)CN1.Cl (centres unmarked) [Compound 36, 2-Amino-N-(12-(2,5-dimethylpiperazin-1-yl)dodecyl) nicotinamide hydrochloride] |  | 100.00 | 100.00 | 100.00 | 100.00 | 100.00 | 
18 | CC(C)(C)OC(=O)N[C@@H]1CCCN(CCCCCCCCCCCCNC(=O)c2cccnc2N)C1 [Compound 117, tert-butyl-(R)-(1-(12-(2-aminonicotinamido)dodecyl)piperidin-3-yl) carbamate] |  | 100.00 | 100.00 | 100.00 | 100.00 | 100.00 | 
19 | CN1CCN(CCCCCCCCCCCCNC(=O)c2ccnc(Cl)c2Cl)CC1 [Compound 198, 2,3-Dichloro-N-(12-(4-methylpiperazin-1-yl)dodecyl) isonicotinamide] | 5.35 | 9.41 | 20.12 | 100.00 | 100.00 | 100.00 | 
20 | Nc1ncccc1C(=O)NCCCCCCCCCCCCN1CCOC1=O [Compound 127, 2-amino-N-(12-(2-oxooxazolidin-3-yl)dodecyl) nicotinamide] |  |  |  | 100.00 | 100.00 | 100.00 | 
